Experimental findings from PubChem BioAssay AID1648 (Sanford-Burnham Center for Chemical Genomics, 2009) are described below.

The Kd is the free concentration of one partner at which half of the binding sites on the other are occupied at equilibrium, for simple one-to-one binding.

The source made the active and inactive calls. The rule behind the calls is not given here. Bounds are passed on as bounds.

Serine/threonine-protein kinase mTOR (Homo sapiens), sequence (P42345 2015-2114): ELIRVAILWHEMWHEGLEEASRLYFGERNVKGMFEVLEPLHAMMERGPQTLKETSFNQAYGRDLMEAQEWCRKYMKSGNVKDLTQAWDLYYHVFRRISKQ

The experiment has as its target Serine/threonine-protein kinase mTOR (Homo sapiens) (UniProt P42345). Description: binders of mTOR FRB domain, biophysical, NMR (AID 1648). Particulars: NMR binding to FRB domain, chemical shift.
Consider `O=c1ccn([C@@H]2O[C@H](COP(=O)(O)OP(=O)(O)OP(=O)(O)O)[C@@H](O)[C@H]2O)c(=O)[nH]1`, for which the Kd was > 4 mM (inactive).
To `COc1cc([C@@H]2c3cc4c(cc3[C@H](O)[C@H]3COC(=O)[C@H]23)OCO4)cc(OC)c1OC` belongs > 4 mM (inactive); to `Cc1cc(=O)n2[nH]c(C)cc2n1`, > 4 mM (inactive); to `S=C(NCc1ccco1)NN1CCOCC1`, > 4 mM (inactive).
The figure for `CCOC(=O)c1[nH]c(C)cc1C` is > 4 mM (inactive); for `CS(=O)(=O)N1CCN(c2ncccn2)CC1` it is > 4 mM (inactive); for `O=c1c(-c2ccccc2)coc2cc(O)cc(O)c12` it is > 4 mM (inactive).
As for `CSc1nnc2c(n1)OC(C)=Nc1ccccc1-2`, the Kd was > 4 mM (inactive).
To `Cc1c(C(=O)Nc2ccccc2)sc(N)c1C(N)=O` belongs > 4 mM (inactive); to `CN(C)c1nc(N)nc(Cn2ccnc2)n1`, > 4 mM (inactive).
The figure for `COC(=O)CC1NC2CCCCC2NC1=O` (stereo unspecified) is > 4 mM (inactive); for `O=S(=O)(Nc1ccc2c(c1)OCCO2)c1cccs1` it is > 4 mM (inactive); for `CNC(=O)c1cc2cccc(OC)c2oc1=O` it is > 4 mM (inactive).
To `COc1nc(-c2ccccc2)ccc1-c1noc(C)n1` belongs > 4 mM (inactive); to `Cc1cc2c(N)cccc2nn1`, > 4 mM (inactive); to `Cn1c(SCc2ccon2)nc2ccccc2c1=O`, > 4 mM (inactive).
In the case of `Cc1cc(NC(=O)CS(=O)(=O)c2ccccc2)no1`, the Kd is > 4 mM (inactive).
The figure for `OC[C@H]1O[C@@H](Oc2ccc(O)cc2)[C@H](O)[C@@H](O)[C@@H]1O` is > 4 mM (inactive); for `Cc1ccnc(NS(=O)(=O)c2ccccc2)n1` it is > 4 mM (inactive); for `NC1=NC(=O)/C(=C/c2cccc([N+](=O)[O-])c2)S1` it is > 4 mM (inactive).
The figure for `NC(=O)CC1Nc2cccc3cccc(c23)NC1=O` (stereo unspecified) is > 4 mM (inactive); for `Cc1cc(=O)[nH]c(N2CCN(Cc3ccccc3)CC2)n1` it is > 4 mM (inactive).
The figure for `O=S(=O)(O)c1nc2ccccc2[nH]1` is > 4 mM (inactive); for `O=C1CSC(=Nc2ccccc2)N1` it is > 4 mM (inactive).
Take `Nc1c(N2CCCC2)cnn(-c2ccccc2)c1=O`: the Kd was > 4 mM (inactive).
To `NCC(O)c1ccc(O)cc1` (stereo unspecified) belongs > 4 mM (inactive); to `NC(=O)c1c(Cl)nsc1-c1ccccc1Cl`, > 4 mM (inactive).
The figure for `Nc1ccc(NC(=O)c2ccco2)c(Cl)c1` is > 4 mM (inactive).
The figure for `CC(=O)O[C@@H]1C[C@@]2(C)[C@H](c3ccoc3)C[C@H]3O[C@]32[C@]2(C)C(=O)C(O)=C3C(C)(C)C(=O)C=C[C@]3(C)C12` (stereo partly specified) is > 4 mM (inactive); for `Cn1c(CO)nc2ccccc21` it is > 4 mM (inactive); for `O=C(Cn1cncn1)c1ccc(F)c(F)c1` it is > 4 mM (inactive).
In the case of `COc1cc2ccc(=O)oc2c(OC)c1OC`, the Kd is > 4 mM (inactive).
Turning to `CC1=CC(C)C(C(=O)O)C(C(=O)N2CCN(C)CC2)C1` (stereo unspecified), the Kd was > 4 mM (inactive).
For the molecule `Cc1ccc(CN2C3=NC(=O)CN3c3ccccc32)cc1`, the Kd was > 4 mM (inactive).
The figure for `CC(=O)Oc1c(C)c(C)c2c(c1C)CCC(C)(CCCC(C)CCCC(C)CCCC(C)C)O2` (stereo unspecified) is > 4 mM (inactive); for `N#Cc1cnn(Cc2ccc(Cl)cc2)c1N` it is > 4 mM (inactive).
The figure for `CC(C)=CCOc1cc2oc(=O)ccc2cc1O` is > 4 mM (inactive); for `C=CC(C1=CC(=O)C(OC)=CC1=O)c1ccccc1` (stereo unspecified) it is > 4 mM (inactive); for `O=C(NC12CC3CC(CC(C3)C1)C2)c1cnccn1` it is > 4 mM (inactive).
To `CC(=O)N1CCn2c3c(c(=O)c4cc(C)ccc42)CCC31` (stereo unspecified) belongs > 4 mM (inactive); to `CCOC(=O)c1c(C)cc(O)c(C)c1O`, > 4 mM (inactive).
In the case of `Cc1cc(C(=O)Nc2ccccn2)no1`, the Kd is > 4 mM (inactive).
To `CP(C)(=O)c1cccc(C(=O)O)c1` belongs > 4 mM (inactive).
To `CC(=O)NC(O)C(=O)c1cccs1` (stereo unspecified) belongs > 4 mM (inactive); to `CC(C)=CCc1c(O)cc2oc(C)cc(=O)c2c1O`, > 4 mM (inactive); to `CC(=O)Nc1ccc2c(c1)n(C)c(=O)n2C`, > 4 mM (inactive).
The figure for `O=C(NCc1ccncc1)c1cccc(F)c1` is > 4 mM (inactive); for `CN1CN(Cc2ccccc2)CN/C1=N/[N+](=O)[O-]` it is > 4 mM (inactive).
On to `Cc1noc(C)c1C(=O)N1CCc2ccccc21`, for which the Kd was > 4 mM (inactive).
To `O=[N+]([O-])c1cccc(CN2CCC(O)CC2)c1` belongs > 4 mM (inactive).
The figure for `O=C(c1ccc(Cl)c(F)c1F)N1CCCC1` is > 4 mM (inactive).
Turning to `Cc1ccc(N2C(=O)CC(=O)NC2=O)cc1`, the Kd is > 4 mM (inactive).
To `CCC(C)C(=O)O[C@@H]1C[C@@]2(C)[C@H](c3ccoc3)OC(=O)CC23OC2(C)OC34[C@H](OC(=O)C(C)C)[C@@]3(O)[C@@H](OC(=O)C5(C)OC5C)[C@@]5(C)C[C@]3(O)[C@@](C)([C@H]5CC(=O)OC)C14O2` (stereo partly specified) belongs > 4 mM (inactive); to `COC(=O)c1cccnc1Oc1ccccc1`, > 4 mM (inactive).
To `CC(NC(=O)c1cccnc1)c1ccc2c(c1)OCO2` (stereo unspecified) belongs > 4 mM (inactive).
Consider `O=C(Nn1cnnc1)c1csc2c1CCCC2`, for which the Kd is > 4 mM (inactive).
To `Nc1ccc2nccnc2c1` belongs > 4 mM (inactive); to `O=C(O)c1ccc(-c2cccs2)cc1`, > 4 mM (inactive).
To `CC1=NN2C(=N)CC(=O)N=C2S1` belongs > 4 mM (inactive).
The figure for `CC1CCc2cc(F)ccc2N1C(=O)c1ccc(=O)[nH]n1` (stereo unspecified) is > 4 mM (inactive); for `O=C1C2CC=C(Cl)CC2C(=O)N1c1ccccc1O` (stereo unspecified) it is > 4 mM (inactive); for `Cc1ccc(C(O)c2nccn2C)o1` (stereo unspecified) it is > 4 mM (inactive).
For `NC(=S)CN1CCCC1=O`, the Kd is > 4 mM (inactive).
The figure for `O=C(c1ccc(F)cc1)C1CCNCC1` is > 4 mM (inactive); for `NCc1ccc(-c2ccccn2)s1` it is > 4 mM (inactive); for `CS(=O)(=O)N/N=C/c1cccs1` it is > 4 mM (inactive).
Consider `O=C(NCCO)c1cc2ccccc2c(=O)s1`, for which the Kd was > 4 mM (inactive).
As for `O=c1[nH]cc(CN2CCOCC2)c(=O)[nH]1`, the Kd is > 4 mM (inactive).
For the molecule `COc1c(CC=C(C)C)c2c(c3oc(=O)c(-c4ccc(O)cc4)c(O)c13)C=CC(C)(C)O2`, the Kd is > 4 mM (inactive).
The figure for `CCOC(=O)CC1Sc2ccccc2NC1=O` (stereo unspecified) is > 4 mM (inactive); for `O=c1/c(=C/c2ccccc2F)sc2ncnn12` it is > 4 mM (inactive).
To `O=C1CC(c2ccccc2)n2ncnc2N1` (stereo unspecified) belongs > 4 mM (inactive).
To `Fc1ccc(Br)cc1/C=N/n1cnnc1` belongs > 4 mM (inactive).
As to `O=C(NCN1CCOCC1)c1cccnc1`, the Kd was > 4 mM (inactive).
The figure for `COc1ccc2c(c1)OC/C(=C\c1ccc(OC)c(O)c1)C2=O` is > 4 mM (inactive); for `Cc1cccc(C)c1NC(=O)/C=C/C(=O)O` it is > 4 mM (inactive); for `CC(=O)O[C@@H]1CC2C(C)(C)C=CC(=O)[C@]2(C)C2CC[C@@]3(C)[C@H](c4ccoc4)OC(=O)C4OC43[C@@]21C` (stereo partly specified) it is > 4 mM (inactive).
As for `OCc1ccc(-n2cccn2)cc1`, the Kd was > 4 mM (inactive).
The figure for `CC(=O)OC/C=C(\C)CC/C=C(\C)CC/C=C(\C)CC/C=C(\C)CC/C=C(\C)CC/C=C(\C)CC/C=C(\C)CC/C=C(\C)CCC=C(C)C` is > 4 mM (inactive).
The figure for `COCCn1c(N)nc2c1c(=O)[nH]c(=O)n2C` is > 4 mM (inactive).
The figure for `CC1(C)C=Cc2cc3ccc(=O)oc3cc2O1` is > 4 mM (inactive); for `C[C@]12C=CC(=O)C=C1CCC1C2CC[C@]2(C)C(=O)CCC12` (stereo partly specified) it is > 4 mM (inactive); for `O=C(O)c1cccnc1-c1nc2ccccc2s1` it is > 4 mM (inactive).
As to `O=C(c1cccc(C(F)(F)F)c1)N1CCCC1`, the Kd was > 4 mM (inactive).
To `O=C1CCCCCN1CO` belongs > 4 mM (inactive); to `O=C1C=C(Nc2ccc(O)cc2)c2ccccc2C1=O`, > 4 mM (inactive); to `CN1C(=O)C2C=CC1C1C(=O)N(c3ccccc3)C(=O)C21` (stereo unspecified), > 4 mM (inactive).
Take `CC(CCC(=O)O)[C@H]1CCC2C3CC[C@@H]4C[C@H](O)CC[C@]4(C)C3C[C@H](O)[C@@]21C` (stereo partly specified): the Kd is > 4 mM (inactive).
Consider `O=C(Nc1ccc2c(c1)OCO2)c1c(F)cccc1F`, for which the Kd is > 4 mM (inactive).
To `Cc1sc2nc(NCCO)[nH]c(=O)c2c1C` belongs > 4 mM (inactive); to `CC(=O)c1ccc(NC(=O)c2ocnc2C)cc1`, > 4 mM (inactive).
The figure for `CCCc1nc2ccccc2c2nc(N)nn12` is > 4 mM (inactive).
To `CN(C)c1ccc(/C=C2/NC(=S)NC2=O)cc1` belongs > 4 mM (inactive); to `O=C1Nc2ccccc2C1(O)Cc1ccncc1` (stereo unspecified), > 4 mM (inactive); to `S=C(NCC1CCCO1)NC1CC1` (stereo unspecified), > 4 mM (inactive).
Turning to `COc1ccc(N2CC(=O)NC2=O)cc1`, the Kd was > 4 mM (inactive).
The figure for `CC(=O)Nc1cc(C(N)=O)cc(C(N)=O)c1` is > 4 mM (inactive); for `NC(=O)c1ccc(N=Cc2ccc[nH]2)cc1` it is > 4 mM (inactive); for `O=C(CSc1ccnc(=O)[nH]1)NCc1ccccc1` it is > 4 mM (inactive).
To `O=C(NCc1ccccn1)c1ccc(Cl)cc1Cl` belongs > 4 mM (inactive); to `CC12CNCC(C)(CNC1)C2O` (stereo unspecified), > 4 mM (inactive).
